In publication PMC8329300, “X-ray crystallography reveals molecular recognition mechanism for sugar binding in a melibiose transporter MelB” (Communications Biology, 2021):

What was measured:
WT MelBSt [1] = biological target: T1, WT MelBSt (Salmonella typhimurium, UniProt P30878); assay: biochemical; assay type: binding; conditions: for Kd: Kd of substrate binding, α-NPG, ITC 25 °C
T1 construct: Cys scanning mutagenesis for the full-length MelBSt; His10 (C); made in house; host or cells: E. coli DW2
T1 sequence (P30878 whole entry): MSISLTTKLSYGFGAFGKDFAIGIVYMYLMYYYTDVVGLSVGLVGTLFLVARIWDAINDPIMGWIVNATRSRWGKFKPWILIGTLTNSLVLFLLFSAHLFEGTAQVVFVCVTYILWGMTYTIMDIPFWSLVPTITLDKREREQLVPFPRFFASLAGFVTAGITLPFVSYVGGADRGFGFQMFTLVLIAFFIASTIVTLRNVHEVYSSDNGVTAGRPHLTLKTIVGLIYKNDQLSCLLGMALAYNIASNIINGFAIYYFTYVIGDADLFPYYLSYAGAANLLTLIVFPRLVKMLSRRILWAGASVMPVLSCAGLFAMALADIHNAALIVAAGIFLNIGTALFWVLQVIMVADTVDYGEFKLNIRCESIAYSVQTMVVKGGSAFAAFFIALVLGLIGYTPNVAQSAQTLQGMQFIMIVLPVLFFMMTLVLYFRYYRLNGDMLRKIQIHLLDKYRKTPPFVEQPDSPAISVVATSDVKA
Method: All ITC ligand-binding assays were performed with the TA Instruments (Nano-ITC device) at 25 °C. In a typical experiment, the titrand (MelBSt) in the ITC sample cell was titrated with the specified titrant (placed in the Syringe) by an incremental injection of 2-µL aliquots at an interval of 300 s at a constant stirring rate of 250 r.p.m. All samples were degassed using a TA Instruments Degassing Station (model 6326) for 15 min prior to the titration. Data processing was performed with the NanoAnalyze (version 3.6.0 software) provided with the ITC equipment. The normalized heat changes were subtracted from the heat of dilution elicited by last few injections, where no further binding occurred; the corrected heat changes were plotted against the molar ratio of titrant versus titrand. The values for association constant (Ka) value were determined by fitting the data with a one-site independent-binding model. At most cases, the binding stoichiometry (N) number was fixed to 1 since it is a known parameter, which can restrain the data fitting and achieve more accurate results. The dissociation constant Kd = 1/Ka.
Supplementary Figure 1. ITC measurements. ITC measurements were performed at 25 °C as described in Methods. (a) Binding thermography. For all tests, ligands and proteins are buffer- […]
(1 picture or pasted object on this page, not shown here) […]
matched. For melibiose binding measurements, a solution of 80 mM or 10 mM in the absence or presence of NaCl at 100 mM, was injected into the ITC sample cell containing the WT MelBSt at 80 μM without or with 100 mM NaCl, respectively. With the D59C mutant, […] was used. For α-NPG binding measurements, 0.5 mM or 0.4 mM solution was used to titrate the WT or D59C mutant at 50 μM in the absence or presence or 100 mM NaCl, respectively. For the Na+ or Li+ binding measurements, 5 mM or 2 mM solution was used to titrate WT MelBSt at 80 μM without or with 50 mM melibiose, respectively; 40 mM solutions was used to titrate the D59C mutant. (b) binding isotherm. Curve fit was carried out with a one-site independent-binding model included in the NanoAnalyze software (version 3.6.0).

WT MelBSt [2] = biological target: T1, WT MelBSt; assay: biochemical; assay type: binding; conditions: for IC50: IC50 of galactoside displacement on bound D2G, α-NPG, 10 μM D2G
Method: Fig. 1 Functional characterizations. a [^3H] Melibiose transport time course with intact cells. […] Inset, melibiose fermentation assay. Transformants with DW2 strain were plated on MacConkey agar plates containing 30 mM melibiose as the sole carbohydrate source and pH sensor neutral red, and incubated at 37 °C for 16–18 h before imaging. Number of tests = 3, from different batch of cells or duplicate measurements from same batch of sample. b Ligand binding by Trp→dansyl galactoside (D^2G) FRET assay. Purified proteins at 1 μM concentration in 20 mM Tris-HCl, pH 7.5, 100 mM CholCl, 10% glycerol, and 0.03% UDM were subjected to steady-state fluorescence measurements as described in Methods. On the time-trace, 1.8 μL of 1 mM D^2G at 10 μM was added into 180 μL of protein solutions at 1-min point, followed by supplying 10 μL of 5 mM DDMB or 5 mM α-NPG to displace the bound D^2G. For testing Na^+ or Li^+ binding, they are added into the solution before displacement with the second sugar. The structure of DDMB or α-NPG is shown in a chair form, and the carbon positions are labeled. Glycosidic bonds are indicated by arrows. Both are α-galactosides containing a substituent at the anomeric carbon-1. The data were from duplicate measurements.
Steady-state fluorescence measurements were performed with an AMINCO-Bowman series 2 spectrometer with purified MelBSt at 1 μM in 20 mM Tris-HCl, pH 7.5, 100 mM CholCl, 10% glycerol, 0.03% UDM. Using an excitation wavelength at 290 nm, the emission intensity was recorded at 490 nm. On a time-trace, D^2G, NaCl or LiCl, then DDMB or α-NPG, were sequentially added into the protein solutions at a 1 min-interval. […] An identical volume of water was used for the control. The decrease in intensity after each addition of DDMB or α-NPG was corrected by the dilution effect and plotted as a function of the accumulated α-NPG concentrations or estimated DDMB concentrations. The 50% inhibitory concentration (IC50) was determined by fitting a hyperbolic function to the data (OriginPro 2020b). The final concentration of each detergent is estimated to be 234 μM, which is less than their CMC value for (DDMB, 295 μM).
Supplementary Figure 2. Determination of DDMB binding affinity to MelBSt. (a) Titration with DDMB or a-NPG. MelBSt in 20 mM Tris-HCl, pH 7.5, 100 mM CholCl, 10% glycerol, 0.03% UDM without (1) or with 100 mM NaCl (2) were added with D2G at 10 μM at 1-min time point as indicated by triangle symbols on the Trp®dansyl FRET time trace. Starting at the 2-min of time point, DDMB or a-NPG solution was supplemented consecutively at a 1-min interval into MelBSt solution till no change in fluorescence intensity reached as indicated in star symbols. DDM and UDM were used as negative controls. 1% DDM or UDM was titrated into the mixture, The […]
At 2-min time point, additions of galactosides were colored in pink, a-NPG in yellow, UDM in blue, DDM in light blue, water in gray traces, respectively. (b) IC50 determination. The intensity decrease at each titration were corrected by the dilution effect, and plotted as a function of the accumulated DDMB or α-NPG concentration. The 50% inhibitory concentration (IC50) was determined by fitting the data to a hyperbolic function (OriginPro 2020b). Results are presented in […]
(1 picture or pasted object on this page, not shown here)

With `O=[N+]([O-])c1ccc(OC2OC(CO)C(O)C(O)C2O)cc1` [α-NPG, 4-nitrophenyl-α-D-galactopyranoside] the Kd (WT MelBSt [1]; Apo) was 43.2 ± 0.62 µM, the Kd (WT MelBSt [1]; Na+ (100 mM)) was 25.7 ± 4.42 µM and the “greater affinity compared to the native substrate melibiose” value (WT MelBSt [1]; from Table 1) was 100 fold. For the same molecule, the IC50 (WT MelBSt [2]; Apo) was 58.2 ± 11.5 µM, the IC50 (WT MelBSt [2]; Na+ (100 mM)) was 23 ± 2.24 µM and the “effect on Trp→D2G FRET of D2G-bound protein (displacement)” value (WT MelBSt [2]; added to D2G-bound WT MelBSt) was “large decrease in fluorescent intensity”.
